Experimental data taken from PubChem BioAssay AID1918994 (Molecular Pharmacology Branch, DTP, NCI, 2023).

System: 292921-168-R-J2-PDC complex spheroid growth
Test: Anticancer human tumor 292921-168-R-J2-PDC patient-derived pancreatic carcinoma cell line growth inhibition [AhR]
Details: for IC50: curve of first compound; for viability, T/C: stronger effect = lower value
Method in brief: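 Spheroids combined tumor cells with HUVEC endothelial cells and human MSCs as stroma. AhR antagonists were paired with standard or investigational drugs, each dosed in half-log steps down from near clinical Cmax, or from 10 microM where Cmax was unknown.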

[1] = second compound 0.1 µM, first compound 0.000949 µM
[2] = second compound 0.1 µM, first compound 0.003 µM
[3] = second compound 0.1 µM, first compound 0.00949 µM
[4] = second compound 0.1 µM, first compound 0.03 µM
[5] = second compound 0.1 µM, first compound 0.0949 µM
[6] = second compound 0.1 µM, first compound 0.3 µM
[7] = second compound 0.316 µM, first compound 0.000949 µM
[8] = second compound 0.316 µM, first compound 0.003 µM
[9] = second compound 0.316 µM, first compound 0.00949 µM
[10] = second compound 0.316 µM, first compound 0.03 µM
[11] = second compound 0.316 µM, first compound 0.0949 µM
[12] = second compound 0.316 µM, first compound 0.3 µM
[13] = second compound 1 µM, first compound 0.000949 µM
[14] = second compound 1 µM, first compound 0.003 µM
[15] = second compound 1 µM, first compound 0.00949 µM
[16] = second compound 1 µM, first compound 0.03 µM
[17] = second compound 1 µM, first compound 0.0949 µM
[18] = second compound 1 µM, first compound 0.3 µM
[19] = second compound 3.16 µM, first compound 0.000949 µM
[20] = second compound 3.16 µM, first compound 0.003 µM
[21] = second compound 3.16 µM, first compound 0.00949 µM
[22] = second compound 3.16 µM, first compound 0.03 µM
[23] = second compound 3.16 µM, first compound 0.0949 µM
[24] = second compound 3.16 µM, first compound 0.3 µM
[25] = second compound 10 µM, first compound 0.000949 µM
[26] = second compound 10 µM, first compound 0.003 µM
[27] = second compound 10 µM, first compound 0.00949 µM
[28] = second compound 10 µM, first compound 0.03 µM
[29] = second compound 10 µM, first compound 0.0949 µM
[30] = second compound 10 µM, first compound 0.3 µM
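Also: spheroids exposed to compounds for seven days after three days of growth.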

For `CCc1c2c(nc3ccc(O)cc13)-c1cc3c(c(=O)n1C2)COC(=O)[C@]3(O)CC` + Cc1ccccc1N=Nc1ccc(NC(=O)c2ccnn2C)c(C)c1, the IC50 (second compound 0.1 µM) was 3.86 nM, the IC50 (second compound 0.316 µM) was 3.56 nM and the IC50 (second compound 1 µM) was 3.34 nM. For the same molecule, the IC50 (second compound 3.16 µM) was 1.37 nM, the IC50 (second compound 10 µM) was < 0.949 nM and the viability, T/C [1] was 78.2%. For the same molecule, the viability, T/C [2] was 58.5%, the viability, T/C [3] was 20% and the viability, T/C [4] was 7.99%. For the same molecule, the viability, T/C [5] was 5.02%, the viability, T/C [6] was 2.76% and the viability, T/C [7] was 68.3%. The viability, T/C [8] was 55.9%, the viability, T/C [9] was 17.3% and the viability, T/C [10] was 8.17%. For the same molecule, the viability, T/C [11] was 3.89%, the viability, T/C [12] was 3.58% and the viability, T/C [13] was 68.6%. It also gave a viability, T/C [14] of 53.6%, a viability, T/C [15] of 18.9% and a viability, T/C [16] of 9.76%. The viability, T/C [17] was 5.35%, the viability, T/C [18] was 2.94% and the viability, T/C [19] was 54.4%. For the same molecule, the viability, T/C [20] was 40.6%, the viability, T/C [21] was 16% and the viability, T/C [22] was 9.67%. For the same molecule, the viability, T/C [23] was 5.09%, the viability, T/C [24] was 3.01% and the viability, T/C [25] was 47.4%. It also gave a viability, T/C [26] of 40.9%, a viability, T/C [27] of 17.5% and a viability, T/C [28] of 10.8%. It also gave a viability, T/C [29] of 5.21% and a viability, T/C [30] of 3.01%.

For `Nc1ncn(C2CC(O)C(CO)S2)c(=O)n1` (stereo not given) + CC(CO)NC(=O)c1cc(-c2ccc(Cl)cc2)nn(-c2cnn(C)c2)c1=O, the IC50 (second compound 0.1 µM) was > 300 nM, the IC50 (second compound 0.316 µM) was > 300 nM and the IC50 (second compound 1 µM) was > 300 nM. The IC50 (second compound 3.16 µM) was > 300 nM, the IC50 (second compound 10 µM) was > 300 nM and the viability, T/C [1] was 94.1%. The viability, T/C [2] was 94%, the viability, T/C [3] was 98.8% and the viability, T/C [4] was 91%. For the same molecule, the viability, T/C [5] was 88.9%, the viability, T/C [6] was 73.5% and the viability, T/C [7] was 92.3%. The viability, T/C [8] was 95%, the viability, T/C [9] was 96.3% and the viability, T/C [10] was 92.6%. The viability, T/C [11] was 82.7%, the viability, T/C [12] was 77.7% and the viability, T/C [13] was 97.7%. The viability, T/C [14] was 103%, the viability, T/C [15] was 102% and the viability, T/C [16] was 91.8%. For the same molecule, the viability, T/C [17] was 87.8%, the viability, T/C [18] was 80.7% and the viability, T/C [19] was 90.7%. The viability, T/C [20] was 88.3%, the viability, T/C [21] was 89.4% and the viability, T/C [22] was 83.2%. It also gave a viability, T/C [23] of 82.7%, a viability, T/C [24] of 72.2% and a viability, T/C [25] of 71.9%. The viability, T/C [26] was 67.7%, the viability, T/C [27] was 67.6% and the viability, T/C [28] was 67.4%. The viability, T/C [29] was 61.9% and the viability, T/C [30] was 60.5%.

Work on `CC1COCCN1c1cc(C2(S(C)(=N)=O)CC2)nc(-c2ccnc3[nH]ccc23)n1` (stereo not given) + Cc1ccccc1N=Nc1ccc(NC(=O)c2ccnn2C)c(C)c1 yielded an IC50 (second compound 0.1 µM) of 2760 nM, an IC50 (second compound 0.316 µM) of 2520 nM and an IC50 (second compound 1 µM) of 2080 nM. It also gave an IC50 (second compound 3.16 µM) of 1810 nM, an IC50 (second compound 10 µM) of 1480 nM and a viability, T/C (second compound 0.1 µM, first compound 0.0316 µM) of 89.7%. The viability, T/C (second compound 0.1 µM, first compound 0.1 µM) was 96%, the viability, T/C (second compound 0.1 µM, first compound 0.316 µM) was 93.9% and the viability, T/C (second compound 0.1 µM, first compound 1 µM) was 83.1%. The viability, T/C (second compound 0.1 µM, first compound 3.16 µM) was 45.6%, the viability, T/C (second compound 0.1 µM, first compound 10 µM) was 21% and the viability, T/C (second compound 0.316 µM, first compound 0.0316 µM) was 98.8%. For the same molecule, the viability, T/C (second compound 0.316 µM, first compound 0.1 µM) was 84.3%, the viability, T/C (second compound 0.316 µM, first compound 0.316 µM) was 88.3% and the viability, T/C (second compound 0.316 µM, first compound 1 µM) was 79.5%. It also gave a viability, T/C (second compound 0.316 µM, first compound 3.16 µM) of 42.6%, a viability, T/C (second compound 0.316 µM, first compound 10 µM) of 24.4% and a viability, T/C (second compound 1 µM, first compound 0.0316 µM) of 86.4%. The viability, T/C (second compound 1 µM, first compound 0.1 µM) was 83.7%, the viability, T/C (second compound 1 µM, first compound 0.316 µM) was 85.4% and the viability, T/C (second compound 1 µM, first compound 1 µM) was 69.8%. It also gave a viability, T/C (second compound 1 µM, first compound 3.16 µM) of 38.6%, a viability, T/C (second compound 1 µM, first compound 10 µM) of 19.2% and a viability, T/C (second compound 3.16 µM, first compound 0.0316 µM) of 80%. It also gave a viability, T/C (second compound 3.16 µM, first compound 0.1 µM) of 78.8%, a viability, T/C (second compound 3.16 µM, first compound 0.316 µM) of 68% and a viability, T/C (second compound 3.16 µM, first compound 1 µM) of 65.6%. It also gave a viability, T/C (second compound 3.16 µM, first compound 3.16 µM) of 37.4%, a viability, T/C (second compound 3.16 µM, first compound 10 µM) of 16.7% and a viability, T/C (second compound 10 µM, first compound 0.0316 µM) of 66.9%. For the same molecule, the viability, T/C (second compound 10 µM, first compound 0.1 µM) was 55.7%, the viability, T/C (second compound 10 µM, first compound 0.316 µM) was 58.2% and the viability, T/C (second compound 10 µM, first compound 1 µM) was 58.3%. For the same molecule, the viability, T/C (second compound 10 µM, first compound 3.16 µM) was 34.3% and the viability, T/C (second compound 10 µM, first compound 10 µM) was 21.5%.
